Reference: patent publication US20210246128A1, “BICYCLE TOPOISOMERASE I INHIBITING COMPOUNDS, PROCESS FOR PREPARATION AND USE THEREOF” (Council of Scientific & Industrial Research, priority 2018, published 2021)
Converted amounts (≈) assume the structure as drawn. Read-outs that look alike come from different tables or passages of the source.

How the values were obtained:
Plasma stability assay = assay type: in vitro ADME; details: pH 7.4, 37° C., 1 μM
[1] = Lipophilicity assay (octanol/buffer Log D); details: n-octanol/sodium phosphate buffer, pH 7.4
Method: 1.56 g NaH2PO4.2H2O was dissolved in 0.5 L water in a 1 L beaker. After adjusting pH to 7.4 using NaOH solution, the volume was made up to 1 L. Equal volumes of sodium phosphate buffer (10 mM, pH 7.4) and n-octanol were added to a separation funnel and mixed thoroughly by shaking and inverting the funnel several times. The two layers were allowed to separate for 2 days and then dispensed in two separate glass bottles. 10 mM stock solution was prepared in 100% DMSO and stored at 4° C. 500 μL of organic phase (1-octanol) was added to each well of a 2 mL deep well plate, followed by 500 μL of buffer and 15 μL of test substance was added. The plate was vortexed for 1 hr on a plate shaker at 1200 rpm. After incubation, the samples were allowed to equilibrate for 20 min and then centrifuged at 4000 rpm for 30 min for complete phase separation and analysed by LC-UV.
Log D=Log(area of octanol/area of buffer)
Mean, SD and % CV for each set of triplicates were calculated

[2] = Solubility assay (pH 7.4 pION buffer, UV); assay type: physicochemical; details: pH 7.4 pION buffer, aqueous buffer, kinetic from dmso stock; pH 7.4 buffer, 18 hours incubation; read-out: Avg. Solubility (μg/mL) at pH 7.4
How it was run: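 Compound from 20 mM DMSO stock diluted to 200 μM in pH 7.4 pION buffer (<1.0% DMSO) and incubated 18 h sealed. Samples vacuum-filtered, filtrate mixed 1:1 with acetonitrile and UV absorbance read at 240 nm against an acetonitrile/buffer reference of the stock.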

[3] = Caco-2 permeability (21 day culture of Caco-2 cell monolayer); assay type: in vitro ADME; details: human; for recovery at 120 min, 10 μM: Caco-2, pH 7.4, Caco-2
How it was run: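 Caco-2 monolayers grown 21 days, used when TEER >230 ohm·cm2; compound at 10 μM final in HBSS pH 7.4 dosed apical or basal, receiver HBSS with 2% BSA, sampled at 120 min at 37° C. Bidirectional transport quantified by LC-MS/MS against single-point calibration.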

Mean % remaining at 2 hrs in human Plasma (Plasma stability assay): 84.18% | logD [1]: 3.51 | solubility at 18 h [2]: 27.2 µg/mL (≈ 66 µM) | efflux ratio at 120 min, 10 μM ([3]; Caco-2, pH 7.4): 4.54 | recovery at 120 min, 10 μM ([3]; read-out: A to B % Recovery): 77.3% | recovery at 120 min, 10 μM ([3]; read-out: B to A % Recovery): 77.7% | Papp A→B at 120 min, 10 μM ([3]; pH 7.4, Caco-2, 10 μM, 120 min, read-out: Papp Apical to Basal): 6.47 ×10⁻⁶ cm/s | Papp B→A at 120 min, 10 μM ([3]; pH 7.4, Caco-2, 10 μM, 120 min, read-out: Papp Basal to Apical): 27.4 ×10⁻⁶ cm/s
SMILES: Nc1ccc(-c2ccc3ncc(-c4nnco4)c(NCCCn4ccnc4)c3c2)cn1 [Compound 24, N-(3-(1H-imidazol-1-yl)propyl)-6-(6-aminopyridin-3-yl)-3-(1,3,4-oxadiazol-2-yl)quinolin-4-amine]
